Common to all, as to assay: whole plant or invertebrate
Assay type in all cases: in vivo

Assay [1] relates to Cotton aphid (Aphis gossypi). Particulars: 120 h, cotton cotyledons dipped, determined after 5 days, read-out: mortality in comparison with untreated controls. The protocol: Cotton plants in the cotyledon stage (variety ‘Delta Pine’) are infested with approximately 100 laboratory-reared aphids by placing infested leaf sections on top of the test plants. The leaf sections are removed after 24 hours. The cotyledons of the intact plants are dipped into gradient solutions of the test compound. Aphid mortality on the treated plants, relative to mortality on check plants, is determined after 5 days.

Assay [2] relates to Green Peach Aphid (Myzus persicae). Particulars: 120 h, pepper leaves dipped, determined after 5 days, read-out: mortality in comparison with untreated controls. The protocol: Pepper plants in the 2nd leaf-pair stage (variety ‘California Wonder’) are infested with approximately 40 laboratory-reared aphids by placing infested leaf sections on top of the test plants. The leaf sections are removed after 24 hours. The leaves of the intact plants are dipped into gradient solutions of the test compound. Aphid mortality on the treated plants, relative to mortality on check plants, is determined after 5 days.

Another assay relates to Silverleaf Whitefly. Conditions: Bemisia argentifolii; for mortality at 10 ppm: concentration 10 ppm; for mortality at 100 ppm: concentration 100 ppm. The protocol: Selected cotton plants were grown to the cotyledon state (one plant per pot). The cotyledons were dipped into the test solution to provide complete coverage of the foliage and placed in a well-vented area to dry. […] The tip, containing the collected insects, was then gently inserted into the soil containing the treated plant, allowing insects to crawl out of the tip to reach the foliage for feeding. The cups were covered with a re-usable screened lid (150 micron mesh polyester screen PeCap from Tetko Inc). Test plants were maintained in the holding room at about 25° C. and 20-40% relative humid-ity for 3 days avoiding direct exposure to the fluorescent light (24 hour photoperiod) to prevent trapping of heat inside the cup. Mortality was assessed 3 days after treatment of the plants.
by evaluation of the test shown in paragraph III.).

Where [3] appears, read: 72 h, 300 ppm, cotton cotyledons dipped, assessed 3 days after treatment, read-out: mortality in comparison with untreated controls.
[4] abbreviates: in Gossypium hirsutum, comparative example 1, test of paragraph III, read-out: mortality in comparison with untreated controls [%].
The mark [5] stands for this setting: in Gossypium hirsutum, concentration 300 ppm, comparative example 1, test of paragraph III, read-out: mortality in comparison with untreated controls [%].

The structures appear in SMILES notation. Read-outs that look alike come from different tables or passages of the source. Some results are limits rather than exact numbers.

In general, mortality refers to the percentage killed. With `C#CCN1CCSC1=NC(Cc1cc(C)cc(C)c1)c1cccc(Cl)c1Cl` (stereo not drawn) [Example 1, 1-(3-prop-2-ynyl-thiazolidin-2-ylidene)amino-1-(2,3-dichlorophenyl)-2-(3,5-dimethylphenyl)-ethane], the mortality at 300 ppm was more than 70% in assay [1], more than 70% in assay [2], more than 70% with Silverleaf Whitefly (setting [3]) and 100% in the assay on Silverleaf Whitefly (setting [5]). In addition, the mortality at 10 ppm in the assay with Silverleaf Whitefly (setting [4]) was 100%. For the same molecule, the mortality at 100 ppm in the assay with Silverleaf Whitefly (setting [4]) is 100%.
Regarding `Cc1cc(C)cc(CC(N=C2SCCN2CCCOC2CCCCO2)c2cccc(Cl)c2Cl)c1` (stereo not drawn) [Example 2, 1-{3-[3-(tetrahydropyran-2-yloxy)propyl]thiazolidin-2-ylidene}amino-1-(2,3-dichlorophenyl)-2-(3,5-dimethylphenyl)-ethane], the mortality at 300 ppm (in assay [1]; in assay [2]; in the assay with Silverleaf Whitefly (setting [3])) was more than 70% in each case.
For the molecule `Cc1cc(C)cc(CC(N=C2SCCN2C2=NCCS2)c2cccc3c2OC(F)(F)O3)c1` (stereo not drawn) [Example 3, 1-(4,5,4′,5′-tetrahydro-[2,3]-bithiazolyl-2′-ylidene)amino-1-(2,2-difluoro-benzo[1,3]dioxol-4-yl)-2-(3,5-dimethyl-phenyl)-ethane], the mortality at 300 ppm (in assay [1]; in assay [2]; in the assay with Silverleaf Whitefly (setting [3])) was more than 70% throughout.
Consider `Cc1cc(C)cc(CC(N=C2SCCN2C(=S)Nc2cccc(C(F)(F)F)c2)c2cccc(Cl)c2Cl)c1` (stereo not drawn) [Example 4, 2-[1-(2,3-dichlorophenyl)-2-(3,5-dimethylphenyl)ethylimino]-thiazolidine-3-carbothioic acid (3-trifluoromethylphenyl)amide], for which the mortality at 300 ppm was more than 70% in assay [1], more than 70% in assay [2], more than 70% in the assay on Silverleaf Whitefly (setting [3]) and 100% in the assay with Silverleaf Whitefly (setting [5]). In addition, the mortality at 10 ppm with Silverleaf Whitefly (setting [4]) stood at 50%. The mortality at 100 ppm in the assay with Silverleaf Whitefly (setting [4]) stood at 100%.
As for `Cc1cc(C)cc(CC(NC2=NCCS2)c2cccc(Cl)c2Cl)c1` (stereo not drawn) [compound C.3, reference compound], in the assay with Silverleaf Whitefly (setting [4]), the mortality at 10 ppm stood at 0% and the mortality at 100 ppm was found to be 100%. For the same molecule, the mortality at 300 ppm with Silverleaf Whitefly (setting [5]) amounted to 100%.

For the origin of these results see patent publication US8211924B2, “1-(azolin-2-yl)amino-1,2-diphenylethane compounds for combating animal pests” (BASF SE, priority 2007, dated 2012).
